Laboratory results: PubChem BioAssay (NCI)
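Dose response: 5 concentrations. Exposure: 48 h. Format: 96-well plates. Endpoint: linear interpolation; highest concentration if not reached. Abbreviation: GI50, concentration required for 50% inhibition of growth. TGI: concentration producing complete growth inhibition.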

Experiments:
Experiment in all cases: NCI anticancer screen, dose series, 48 h
U251 CNS = system: U251 CNS
A498 renal = system: A498 renal
SK-MEL-28 melanoma = system: SK-MEL-28 melanoma
T-47D breast = system: T-47D breast
OVCAR-3 ovarian = system: OVCAR-3 ovarian
OVCAR-4 ovarian = system: OVCAR-4 ovarian
UO-31 renal = system: UO-31 renal
SF-268 CNS = system: SF-268 CNS
PC-3 prostate = system: PC-3 prostate
COLO 205 colon = system: COLO 205 colon
SNB-75 CNS = system: SNB-75 CNS
SNB-19 CNS = system: SNB-19 CNS
NCI-H460 lung = system: NCI-H460 lung
SN12C renal = system: SN12C renal
SF-539 CNS = system: SF-539 CNS
EKVX NSCLC = system: EKVX NSCLC
UACC-62 melanoma = system: UACC-62 melanoma
SF-295 CNS = system: SF-295 CNS
MALME-3M melanoma = system: MALME-3M melanoma
LOX IMVI melanoma = system: LOX IMVI melanoma
NCI-H23 lung = system: NCI-H23 lung
M14 melanoma = system: M14 melanoma
KM12 colon = system: KM12 colon
HS 578T breast = system: HS 578T breast
NCI/ADR-RES ovarian = system: NCI/ADR-RES ovarian
HCC-2998 colon = system: HCC-2998 colon
MDA-MB-435 = system: MDA-MB-435
SK-MEL-5 melanoma = system: SK-MEL-5 melanoma
HL-60(TB) leukemia = system: HL-60(TB) leukemia
HCT-15 colon = system: HCT-15 colon
MCF7 breast = system: MCF7 breast
NCI-H226 lung = system: NCI-H226 lung
786-0 renal = system: 786-0 renal
RPMI-8226 leukemia = system: RPMI-8226 leukemia
MOLT-4 leukemia = system: MOLT-4 leukemia
MDA-MB-231 breast = system: MDA-MB-231 breast
HOP-92 NSCLC = system: HOP-92 NSCLC
SK-MEL-2 melanoma = system: SK-MEL-2 melanoma
SW-620 colon = system: SW-620 colon
OVCAR-5 ovarian = system: OVCAR-5 ovarian
NCI-H522 lung = system: NCI-H522 lung
CCRF-CEM leukemia = system: CCRF-CEM leukemia
K-562 leukemia = system: K-562 leukemia
UACC-257 melanoma = system: UACC-257 melanoma
CAKI-1 renal = system: CAKI-1 renal
RXF 393 renal = system: RXF 393 renal
HOP-62 NSCLC = system: HOP-62 NSCLC
TK-10 renal = system: TK-10 renal
OVCAR-8 ovarian = system: OVCAR-8 ovarian
A549 NSCLC = system: A549 NSCLC
IGROV1 ovarian = system: IGROV1 ovarian
BT-549 breast = system: BT-549 breast
ACHN renal = system: ACHN renal
HT29 colon = system: HT29 colon
HCT-116 colon = system: HCT-116 colon
DU-145 prostate = system: DU-145 prostate
SK-OV-3 ovarian = system: SK-OV-3 ovarian
SR leukemia = system: SR leukemia

COCCOc1cc(F)c2c(Nc3ccc(NC(=O)Cn4cc(C(C)C)nn4)cc3)ncnc2c1
GI50 (U251 CNS): 37.4 µM | TGI (U251 CNS): > 100 µM | GI50 (A498 renal): > 100 µM | TGI (A498 renal): > 100 µM | GI50 (SK-MEL-28 melanoma): > 100 µM | TGI (SK-MEL-28 melanoma): > 100 µM | GI50 (T-47D breast): 8.11 µM | TGI (T-47D breast): > 100 µM | GI50 (OVCAR-3 ovarian): > 100 µM | TGI (OVCAR-3 ovarian): > 100 µM | GI50 (OVCAR-4 ovarian): 19.2 µM | TGI (OVCAR-4 ovarian): > 100 µM | GI50 (UO-31 renal): > 100 µM | TGI (UO-31 renal): > 100 µM | GI50 (SF-268 CNS): 37.5 µM | TGI (SF-268 CNS): > 100 µM | GI50 (PC-3 prostate): > 100 µM | TGI (PC-3 prostate): > 100 µM | GI50 (COLO 205 colon): > 100 µM | TGI (COLO 205 colon): > 100 µM | GI50 (SNB-75 CNS): 28.2 µM | TGI (SNB-75 CNS): > 100 µM | GI50 (SNB-19 CNS): 41 µM | TGI (SNB-19 CNS): > 100 µM | GI50 (NCI-H460 lung): 51.3 µM | TGI (NCI-H460 lung): > 100 µM | GI50 (SN12C renal): 71.6 µM | TGI (SN12C renal): > 100 µM | GI50 (SF-539 CNS): 6.41 µM | TGI (SF-539 CNS): > 100 µM | GI50 (EKVX NSCLC): > 100 µM | TGI (EKVX NSCLC): > 100 µM | GI50 (UACC-62 melanoma): 85.4 µM | TGI (UACC-62 melanoma): > 100 µM | GI50 (SF-295 CNS): 53.5 µM | TGI (SF-295 CNS): > 100 µM | GI50 (MALME-3M melanoma): 79.6 µM | TGI (MALME-3M melanoma): > 100 µM | GI50 (LOX IMVI melanoma): > 100 µM | TGI (LOX IMVI melanoma): > 100 µM | GI50 (NCI-H23 lung): > 100 µM | TGI (NCI-H23 lung): > 100 µM | GI50 (M14 melanoma): > 100 µM | TGI (M14 melanoma): > 100 µM | GI50 (KM12 colon): 1.16 µM | TGI (KM12 colon): > 100 µM | GI50 (HS 578T breast): 16.5 µM | TGI (HS 578T breast): > 100 µM | GI50 (NCI/ADR-RES ovarian): > 100 µM | TGI (NCI/ADR-RES ovarian): > 100 µM | GI50 (HCC-2998 colon): > 100 µM | TGI (HCC-2998 colon): > 100 µM | GI50 (MDA-MB-435): > 100 µM | TGI (MDA-MB-435): > 100 µM | GI50 (SK-MEL-5 melanoma): 24.3 µM | TGI (SK-MEL-5 melanoma): > 100 µM | GI50 (HL-60(TB) leukemia): > 100 µM | TGI (HL-60(TB) leukemia): > 100 µM | GI50 (HCT-15 colon): > 100 µM | TGI (HCT-15 colon): > 100 µM | GI50 (MCF7 breast): > 100 µM | TGI (MCF7 breast): > 100 µM | GI50 (NCI-H226 lung): 60.8 µM | TGI (NCI-H226 lung): > 100 µM | GI50 (786-0 renal): 39.1 µM | TGI (786-0 renal): > 100 µM | GI50 (RPMI-8226 leukemia): > 100 µM | TGI (RPMI-8226 leukemia): > 100 µM | GI50 (MOLT-4 leukemia): > 100 µM | TGI (MOLT-4 leukemia): > 100 µM | GI50 (MDA-MB-231 breast): 41.6 µM | TGI (MDA-MB-231 breast): > 100 µM | GI50 (HOP-92 NSCLC): 5.99 µM | TGI (HOP-92 NSCLC): 92 µM | GI50 (SK-MEL-2 melanoma): 44.7 µM | TGI (SK-MEL-2 melanoma): > 100 µM | GI50 (SW-620 colon): > 100 µM | TGI (SW-620 colon): > 100 µM | GI50 (OVCAR-5 ovarian): > 100 µM | TGI (OVCAR-5 ovarian): > 100 µM | GI50 (NCI-H522 lung): 35.5 µM | TGI (NCI-H522 lung): > 100 µM | GI50 (CCRF-CEM leukemia): > 100 µM | TGI (CCRF-CEM leukemia): > 100 µM | GI50 (K-562 leukemia): 10.2 µM | TGI (K-562 leukemia): > 100 µM | GI50 (UACC-257 melanoma): > 100 µM | TGI (UACC-257 melanoma): > 100 µM | GI50 (CAKI-1 renal): > 100 µM | TGI (CAKI-1 renal): > 100 µM | GI50 (RXF 393 renal): 10.2 µM | TGI (RXF 393 renal): > 100 µM | GI50 (HOP-62 NSCLC): 22.2 µM | TGI (HOP-62 NSCLC): > 100 µM | GI50 (TK-10 renal): > 100 µM | TGI (TK-10 renal): > 100 µM | GI50 (OVCAR-8 ovarian): 37.4 µM | TGI (OVCAR-8 ovarian): > 100 µM | GI50 (A549 NSCLC): > 100 µM | TGI (A549 NSCLC): > 100 µM | GI50 (IGROV1 ovarian): > 100 µM | TGI (IGROV1 ovarian): > 100 µM | GI50 (BT-549 breast): 33.6 µM | TGI (BT-549 breast): > 100 µM | GI50 (ACHN renal): 51.5 µM | TGI (ACHN renal): > 100 µM | GI50 (HT29 colon): > 100 µM | TGI (HT29 colon): > 100 µM | GI50 (HCT-116 colon): 57.9 µM | TGI (HCT-116 colon): > 100 µM | GI50 (DU-145 prostate): > 100 µM | TGI (DU-145 prostate): > 100 µM

O=[N+]([O-])c1ccccc1S(=O)(=O)c1cc(Cl)cc2c1NCCC2
TGI (A498 renal): > 100 µM | TGI (SK-MEL-28 melanoma): > 100 µM | TGI (OVCAR-3 ovarian): > 100 µM | TGI (OVCAR-4 ovarian): > 100 µM | TGI (UO-31 renal): > 100 µM | TGI (SK-OV-3 ovarian): > 100 µM | TGI (SF-268 CNS): > 100 µM | TGI (PC-3 prostate): > 100 µM | TGI (COLO 205 colon): > 100 µM | TGI (SNB-75 CNS): > 100 µM | TGI (SNB-19 CNS): > 100 µM | TGI (NCI-H460 lung): > 100 µM | TGI (SN12C renal): > 100 µM | TGI (SF-539 CNS): > 100 µM | TGI (EKVX NSCLC): > 100 µM | TGI (UACC-62 melanoma): > 100 µM | TGI (SF-295 CNS): > 100 µM | TGI (MALME-3M melanoma): 74.1 µM | TGI (LOX IMVI melanoma): > 100 µM | TGI (M14 melanoma): > 100 µM | TGI (KM12 colon): > 100 µM | TGI (HS 578T breast): > 100 µM | TGI (NCI/ADR-RES ovarian): > 100 µM | TGI (SR leukemia): > 100 µM | TGI (HCC-2998 colon): > 100 µM | TGI (MDA-MB-435): > 100 µM | TGI (SK-MEL-5 melanoma): 86.1 µM | TGI (HL-60(TB) leukemia): > 100 µM | TGI (HCT-15 colon): > 100 µM | TGI (MCF7 breast): > 100 µM | TGI (NCI-H226 lung): > 100 µM | TGI (786-0 renal): > 100 µM | TGI (RPMI-8226 leukemia): > 100 µM | TGI (MOLT-4 leukemia): > 100 µM | TGI (MDA-MB-231 breast): > 100 µM | TGI (HOP-92 NSCLC): > 100 µM | TGI (SK-MEL-2 melanoma): > 100 µM | TGI (SW-620 colon): > 100 µM | TGI (OVCAR-5 ovarian): > 100 µM | TGI (CCRF-CEM leukemia): > 100 µM | TGI (K-562 leukemia): > 100 µM | TGI (UACC-257 melanoma): 96.7 µM | TGI (CAKI-1 renal): > 100 µM | TGI (RXF 393 renal): > 100 µM | TGI (HOP-62 NSCLC): > 100 µM | TGI (TK-10 renal): > 100 µM | TGI (OVCAR-8 ovarian): > 100 µM | TGI (A549 NSCLC): > 100 µM | TGI (IGROV1 ovarian): > 100 µM | TGI (BT-549 breast): > 100 µM | TGI (ACHN renal): > 100 µM | TGI (HT29 colon): > 100 µM | TGI (HCT-116 colon): > 100 µM | TGI (DU-145 prostate): > 100 µM
